The record followed here is ChEMBL document CHEMBL5260825, “Chemical Constituents of Bryophytes: Structures and Biological Activity” (J Nat Prod, 2018).

≈ marks a conversion by molar mass, not a printed value. Where “and” joins values, the source holds several entries; their conditions need not be identical. Equal entries are not always repeated.

Broadly, the IC50 is the concentration at which inhibition is half-maximal. For orientation: GI50 means the concentration at which growth is held to half of that of the control.

For the first assay, the system named is P388. As to the kind of experiment: Antiproliferative activity against mouse P388 cells assessed as cell growth inhibition. It counts as functional, cell-based.
Settings: not given
As to `C=C1C(=O)O[C@H]2/C=C(\C)CC/C=C(\C)CC[C@H]12`, the half-inhibitory concentration (IC50) is 0.7 µg/mL (≈ 3.01 µM). With `C=C1C(=O)C[C@H]2[C@H]3[C@@H]1[C@]2(COC(C)=O)CCCC3(C)C`, the 50% inhibitory concentration (IC50) was 1 µg/mL (≈ 3.62 µM). `C=C1C(=O)[C@@]23CC[C@@H]4C(C)(C)CCC[C@@]4(C)[C@@H]2[C@@H](O)C[C@@H]1C3`: the concentration for 50% growth inhibition (GI50) was 0.48 µg/mL and 1.6 µM.

For `CC(C)(O)[C@H]1CC[C@@]2(C)C1CC[C@]1(C)C2CCC2[C@@]3(C)CCCC(C)(C)[C@@H]3[C@@H](O)C[C@]21C` (stereo partly specified), the half-inhibitory concentration (IC50) worked out at 1.1 µg/mL (≈ 2.47 µM). As to `CC1(C)CCC[C@]2(C)CC3=CC(=O)O[C@@]3(O)C[C@@H]12`, the IC50 came out at 2.3 µg/mL (≈ 9.19 µM). Regarding `C[C@H]1C(=O)C2=C[C@H]1CCC(=O)[C@]1(C)CCCC(C)(C)[C@H]1C[C@H]2O`, the GI50 was 1.9 µg/mL and 5.9 µM; the 50% inhibitory concentration (IC50) turned out to be 0.8 µg/mL (≈ 2.51 µM). For `C=C1C(=O)C[C@H]2[C@H]3[C@@H]1[C@]2(C)CCCC3(C)C`, the concentration for half-maximal inhibition (IC50) was 1 µg/mL (≈ 4.58 µM).

As to `C=C1C(=O)O[C@H]2C3=C(C)CCC[C@@]3(C)CC[C@H]12`, the IC50 amounted to 1.1 µg/mL (≈ 4.73 µM).

The test system of the next assay is HL-60. As to the kind of experiment: Antiproliferative activity against human HL-60 cells assessed as cell growth inhibition.
Settings: not given
It counts as functional, cell-based.
Take `C=C1CCC[C@H]2C(=C)C(=O)O[C@@]23[C@@H](C)CC[C@@H]13`: the half-inhibitory concentration (IC50) stood at 5.3 µg/mL. Same read-out and setting: then `C=C1C(=O)O[C@H]2C/C(C)=C/CC[C@@]3(C)O[C@H]3C[C@H]12`, with 8500 nM. As for `C=C1C(=O)[C@]23C[C@H]1CC[C@H]2[C@]1(C)CCCC(C)(C)[C@H]1[C@@H](O)C3`, the IC50 worked out at 400 nM. Take `C=C1C(=O)[C@@H]2C3=C(CC[C@@H]4C(C)(C)CC[C@H](O)[C@@]34C)C[C@H]1[C@@H]2O`: the 50% inhibitory concentration (IC50) was determined as 780 nM. On to `C=C1C(=O)[C@H]2C[C@@H]1CC1=C2[C@]2(C)CCCC(C)(C)[C@H]2CC1`, for which the IC50 worked out at 1210 nM. Same read-out and setting: to `C=C1C(=O)[C@H]2C[C@@H]1CC1=C2[C@@]2(C)[C@H](CC1)C(C)(C)CC[C@@H]2O` belongs 280 nM; to `C=C1C(=O)[C@@]23CC[C@@H]4C(C)(C)CCC[C@@]4(C)[C@@H]2[C@@H](O)C[C@@H]1C3`, 490 nM; to `C=C[C@@]1(O)CC(=O)[C@@]2(C(=O)OC)[C@H](C)CC[C@@]2(C)[C@@H]1C`, 2700 nM. For `C=C1C(=O)[C@@H]2C3=C(CC[C@@H]4C(C)(C)CCC[C@@]34C)C[C@H]1[C@@H]2O`, the half-maximal inhibitory concentration (IC50) was 1280 nM. Turning to `C=C1C(=O)O[C@@H]2/C=C(\C)CC/C=C(\C)CC(OC(C)=O)[C@@H]12` (stereo partly specified), the 50% inhibitory concentration (IC50) is 4600 nM. Turning to `C=C1C(=O)[C@@]23CC[C@@H]4C(C)(C)CC[C@H](O)[C@@]4(C)C2=CC[C@@H]1C3`, the half-maximal inhibitory concentration (IC50) turned out to be 7000 nM. Turning to `C=C1C(=O)[C@@]23CC[C@@H]4C(C)(C)CCC[C@@]4(C)C2=CC(=O)[C@@H]1C3`, the 50% inhibitory concentration (IC50) turned out to be 590 nM.

In another assay the test system is Peritoneal macrophage cell. Briefly: Inhibition of superoxide anion radical release in guinea pig peritoneal macrophages. It counts as functional, cell-based. As to conditions: Cavia porcellus.
The molecule `Cc1cc([C@@]2(C)CCCC2(C)C)cc(O)c1O` returned a half-maximal inhibitory concentration (IC50) of 12.5 µg/mL (≈ 53.3 µM).

Regarding `C=C1CC[C@H]2[C@@H]([C@H]3C(C)=COC(=O)[C@@H]13)C2(C)C`, the 50% inhibitory concentration (IC50) worked out at 12.5 µg/mL (≈ 53.8 µM). Molecule `C=C1[C@@H]2CCC3[C@@](CC(=O)[C@@H]4C(C)(C)CCC[C@@]34CO[C@@H]3O[C@H](CO)[C@@H](O)[C@H](O)[C@H]3O)(C2)[C@@H]1O` (stereo partly specified) yielded an IC50 of 12.5 µg/mL (≈ 26 µM). As to `C/C1=C\[C@@H]2[C@H](CC/C(C)=C/CC1)C2(C)C=O` (stereo partly specified), the midpoint of inhibition, the IC50, lay at 12.5 µg/mL (≈ 57.3 µM). `C[C@]12COc3cc(CCc4ccccc4)c(C(=O)O)c(O)c3[C@H]1C2` came in with an IC50 of 6 µg/mL (≈ 18.5 µM). As for `CC1(C)[C@H](OC(=O)/C=C/c2ccc(O)c(O)c2)CC[C@]2(C)[C@H]3C4C[C@@]12C[C@]43C`, half-maximal inhibition (IC50) required 7.5 µg/mL (≈ 19.6 µM). Turning to `C=C1[C@@H]2CCC3[C@@](CC(=O)[C@@H]4C(C)(C)CCC[C@@]34CO[C@@H]3O[C@H](CO)[C@@H](O)[C@H](O)[C@H]3OC(C)=O)(C2)[C@@H]1O` (stereo partly specified), 12.5 µg/mL (≈ 23.9 µM) corresponded to half-maximal inhibition (IC50).

For another assay, the system named is RAW264.7. Briefly: Inhibition of LPS-induced NO production in mouse RAW264.7 cells.
Settings: not given
Format: functional, cell-based.
Turning to `CC1(C)[C@H]2CC[C@]3(C)Oc4cc(O)cc(CCc5ccccc5)c4[C@H]1[C@@H]23`, the half-maximal inhibitory concentration (IC50) is 4500 nM.

Molecule `CC(C)=CCC/C(C)=C/Cc1c(O)cc(O)cc1CCc1ccccc1` showed an IC50 of 4500 nM. Molecule `Oc1cc(CCc2ccccc2O)c2ccoc2c1` returned an IC50 of 4500 nM.
